Results on three compounds are retold here after ChEMBL document CHEMBL5346863, “Discovery of substituted benzyloxy-benzylamine inhibitors of acetyltransferase Eis and their anti-mycobacterial activity” (Eur J Med Chem, 2022).

Molecules are shown by their SMILES. Converted amounts (≈) assume the structure as drawn. The source made the active and inactive calls. The calls are words filed in the database; no cut-off is given here.

Data set [1] relates to Mycolicibacterium smegmatis. Put plainly: Antibacterial activity against Mycobacterium smegmatis mc2 122 assessed as bacterial growth inhibition incubated for 2 to 3 weeks by resazurin dye based assay. In kind it is functional. The note with it: time 2-3 weeks.
For data set [2], the system named is Mycobacterium tuberculosis. Briefly: Antibacterial activity against Mycobacterium tuberculosis mc2 6230 K204 assessed as MIC of kanamycin A at 25 uM incubated for 24 hrs followed by kanamycin A addition measured after 6 days by alamarblue dye based assay. The class given is functional. Conditions: Mycobacterium tuberculosis, mc2 6230 K204, 168 h, time 7 day, read-out: MIC.

Data set [3] concerns Mycobacterium tuberculosis. Briefly: Antibacterial activity against Mycobacterium tuberculosis H37Ra assessed as bacterial growth inhibition incubated 2 to 3 weeks by resazurin dye based assay. The class given is functional. The note with it: time 2-3 weeks.
Data set [4] concerns Mycobacterium tuberculosis. Put plainly: Antibacterial activity against Mycobacterium tuberculosis H37Rv assessed as MIC of kanamycin A at 100 uM incubated for 24 hrs followed by kanamycin A addition measured after 6 days by alamarblue dye based assay. In kind it is functional. Conditions: time 7.0 day.
Data set [5] has as its target T1, N-acetyltransferase Eis (Mycobacterium tuberculosis (strain ATCC 25618 / H37Rv), UniProt P9WFK7).
T1 sequence (P9WFK7 whole entry): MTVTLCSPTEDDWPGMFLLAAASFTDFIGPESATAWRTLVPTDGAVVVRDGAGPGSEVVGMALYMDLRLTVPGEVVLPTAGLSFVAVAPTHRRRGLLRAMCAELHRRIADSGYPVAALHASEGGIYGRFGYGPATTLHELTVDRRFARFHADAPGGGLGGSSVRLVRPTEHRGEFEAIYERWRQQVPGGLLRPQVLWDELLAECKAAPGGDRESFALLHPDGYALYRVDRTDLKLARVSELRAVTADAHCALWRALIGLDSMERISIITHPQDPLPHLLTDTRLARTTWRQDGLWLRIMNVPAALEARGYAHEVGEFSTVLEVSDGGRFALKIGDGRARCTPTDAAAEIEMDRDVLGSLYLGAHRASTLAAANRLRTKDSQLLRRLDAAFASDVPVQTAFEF
Briefly: Binding affinity to wild-type Mycobacterium tuberculosis Eis expressed in Escherichia coli BL21(DE3) cells assessed as inhibition constant incubated for 5 mins by Ellman's method based Michaelis-Menten analysis.

The subject of data set [6] is J774.1. Put plainly: Cytotoxicity against mouse J774.1 cells upto 12.5 uM incubated for 24 hrs by resazurin dye based cell viability assay. The class given is toxicity. The note with it: j774.1, 24 h.
Data set [7] has as its system A549. Briefly: Cytotoxicity against human A549 cells upto 12.5 uM incubated for 24 hrs by resazurin dye based cell viability assay. The class given is toxicity. Conditions: a549, 24 h.
Data set [8] has as its system Mycobacterium tuberculosis. Put plainly: Antibacterial activity against Mycobacterium tuberculosis K204 assessed as MIC of kanamycin A at 97.9 uM incubated for 24 hrs followed by kanamycin A addition measured after 6 days by alamarblue dye based assay. Conditions: time 7.0 day. The class given is functional, organism-based.
In data set [9] the test system is Mycobacterium tuberculosis. Put plainly: Antibacterial activity against Mycobacterium tuberculosis mc2 6230 assessed as bacterial growth inhibition incubated 2 to 3 weeks by resazurin dye based assay. The class given is functional. The note with it: time 2-3 weeks.
Data set [10] relates to Mycobacterium tuberculosis. Briefly: Antibacterial activity against Mycobacterium tuberculosis H37Rv assessed as MIC of kanamycin A at 97.9 uM incubated for 24 hrs followed by kanamycin A addition measured after 6 days by alamarblue dye based assay. The class given is functional, organism-based. Conditions: time 7.0 day.
In data set [11] the test system is Mycobacteroides abscessus. Put plainly: Antibacterial activity against Mycobacterium abscessus ATCC 19977 assessed as bacterial growth inhibition incubated for 2 to 3 weeks by resazurin dye based assay. The class given is functional. Conditions: time 2-3 weeks.
Data set [12] has as its system Mycobacterium tuberculosis. Put plainly: Antibacterial activity against Mycobacterium tuberculosis mc2 6230 assessed as MIC of kanamycin A at 25 uM incubated for 24 hrs followed by kanamycin A addition measured after 6 days by alamarblue dye based assay. In kind it is functional. The note with it: mc2 6230, 168 h, time 7 day.
Data set [13] deals with A549. Briefly: Cytotoxicity against human A549 cells >=50 uM incubated for 24 hrs by resazurin dye based cell viability assay. The class given is toxicity. The note with it: a549, 24 h.
A further data set relates to Mycobacterium avium. Briefly: Antibacterial activity against Mycobacterium avium ATCC 25291 assessed as bacterial growth inhibition incubated for 2 to 3 weeks by resazurin dye based assay. The class given is functional. The note with it: time 2-3 weeks.
Data set [14] deals with T1, N-acetyltransferase Eis. Briefly: Inhibition of wild-type Mycobacterium tuberculosis Eis expressed in Escherichia coli BL21(DE3) cells incubated for 5 mins by Ellman's method.
The subject of data set [15] is HEK293. Put plainly: Cytotoxicity against HEK293 cells upto 12.5 uM incubated for 24 hrs by resazurin dye based cell viability assay. In kind it is toxicity. Conditions: human, hek293, 24 h.
Data set [16] relates to HEK293. Put plainly: Cytotoxicity against HEK293 cells at 200 uM incubated for 24 hrs by resazurin dye based cell viability assay. The class given is toxicity. Conditions: human, hek293, 24 h.
In data set [17] the test system is Mycobacterium tuberculosis. Briefly: Antibacterial activity against Mycobacterium tuberculosis H37Rv assessed as MIC of kanamycin A at 106 uM incubated for 24 hrs followed by kanamycin A addition measured after 6 days by alamarblue dye based assay. The class given is functional, organism-based. The note with it: time 7.0 day.
In data set [18] the test system is Mycobacterium intracellulare. Put plainly: Antibacterial activity against Mycobacterium intracellulare ATCC 13950 assessed as bacterial growth inhibition incubated for 2 to 3 weeks by resazurin dye based assay. In kind it is functional. Conditions: time 2-3 weeks.
Data set [19] deals with A549. Put plainly: Cytotoxicity against human A549 cells at 200 uM incubated for 24 hrs by resazurin dye based cell viability assay. The class given is toxicity. The note with it: a549, 24 h.
The test system of data set [20] is Mycobacterium tuberculosis. Put plainly: Antibacterial activity against Mycobacterium tuberculosis K204 assessed as MIC of kanamycin A at 106 uM incubated for 24 hrs followed by kanamycin A addition measured after 6 days by alamarblue dye based assay. The class given is functional, organism-based. The note with it: time 7.0 day.
In data set [21] the test system is J774.1. Briefly: Cytotoxicity against mouse J774.1 cells at 200 uM incubated for 24 hrs by resazurin dye based cell viability assay. Conditions: j774.1, 24 h. In kind it is toxicity.
Data set [22] deals with J774.1. Put plainly: Cytotoxicity against mouse J774.1 cells <=50 uM incubated for 24 hrs by resazurin dye based cell viability assay. In kind it is toxicity. The note with it: j774.1, 24 h.
Data set [23] concerns HEK293. Briefly: Cytotoxicity against HEK293 cells <=50 uM incubated for 24 hrs by resazurin dye based cell viability assay. The class given is toxicity. The note with it: human, hek293, 24 h.
Data set [24] has as its system A549. Briefly: Cytotoxicity against human A549 cells upto 50 uM incubated for 24 hrs by resazurin dye based cell viability assay. In kind it is toxicity. Conditions: a549, 24 h.
Data set [25] deals with Mycobacterium tuberculosis. Put plainly: Antibacterial activity against Mycobacterium tuberculosis mc2 6230 K204 assessed as MIC of kanamycin A at 6.25 uM incubated for 24 hrs followed by kanamycin A addition measured after 6 days by alamarblue dye based assay. The class given is functional. The note with it: mc2 6230 K204, 168 h, time 7 day.
Data set [26] deals with Mycobacterium parascrofulaceum. Briefly: Antibacterial activity against Mycobacterium parascrofulaceum ATCC BAA-614 assessed as bacterial growth inhibition incubated for 2 to 3 weeks by resazurin dye based assay. In kind it is functional. The note with it: time 2-3 weeks.
The test system of data set [27] is Mycobacterium tuberculosis. Put plainly: Antibacterial activity against Mycobacterium tuberculosis mc2 6230 assessed as MIC of kanamycin A at 6.25 uM incubated for 24 hrs followed by kanamycin A addition measured after 6 days by alamarblue dye based assay. The class given is functional. Conditions: mc2 6230, 168 h, time 7 day.

On to `Clc1ccc(COc2ccccc2CNCc2cccnc2)cc1`, for which the MIC is 62.5 µM (≈ 21.2 µg/mL) in data set [1]; > 10 µM in [2]; 62.5 µM (≈ 21.2 µg/mL) in data set [3]; 50 µM (≈ 16.9 µg/mL) in data set [9]; > 62.5 µM in data set [11]; < 1.25 µM in data set [12]. In the data set on Mycobacterium avium, the MIC is > 62.5 µM. Moreover, the result in data set [4], in [8] and in data set [10] was Active. For the same compound, on N-acetyltransferase Eis [5], the Ki is 1160 nM. For the same compound, the Activity result is on record as “Non-Toxic” in the data set on J774.1 [6], “Non-Toxic” with A549 [7], “Toxic” in the data set with A549 [13] and “Non-Toxic” with HEK293 [15]. The IC50 against N-acetyltransferase Eis [14] turned out to be 2000 nM.
As for `Clc1ccc(COc2ccc(CNCc3ccncc3)cc2)cc1`, the Activity entry with HEK293 [16] was “Toxic”; in the data set on J774.1 [6], “Non-Toxic”; with A549 [7] it was “Non-Toxic”; in the data set with A549 [19], “Toxic”; with HEK293 [15], “Non-Toxic”; in the data set with J774.1 [21], “Toxic”. Further, the MIC was 3.9 µM (≈ 1.32 µg/mL) in data set [3]; 25 µM (≈ 8.47 µg/mL) in data set [9]; 62.5 µM (≈ 21.2 µg/mL) in data set [11]; > 62.5 µM with Mycobacterium avium; 2 µM (≈ 0.678 µg/mL) in data set [18]. The result in data set [4], in data set [17] and in [20] was Active. This compound also showed an IC50 on N-acetyltransferase Eis [14] of 2000 nM.
For the compound `Clc1ccc(COc2ccc(CNCc3ccccc3)cc2)cc1`, the Activity result in the data set with J774.1 [22], in the data set on HEK293 [23], with J774.1 [6], with A549 [7], in the data set with A549 [24] and in the data set on HEK293 [15] was “Non-Toxic” in each case. Also, the MIC in data set [1] was 15.6 µM (≈ 5.27 µg/mL); in [3], 3.9 µM (≈ 1.32 µg/mL); in data set [9], 12.5 µM (≈ 4.22 µg/mL); in data set [25], < 1.25 µM; in data set [11], 31.3 µM (≈ 10.6 µg/mL); with Mycobacterium avium, 62.5 µM (≈ 21.1 µg/mL). The MIC in [26] is 15.6 µM (≈ 5.27 µg/mL); in data set [27], < 1.25 µM. Moreover, the outcome in data set [4] was Active. For the same compound, on N-acetyltransferase Eis [14], the IC50 was > 200000 nM.
